What is called IC50 is the concentration that inhibits the measured activity by half. A low value points to inhibition by little substance.

This assay concerns the target TG2 (Homo sapiens (Human), UniProt P21980). The assay can be described thus: Transglutaminase (TG) Inhibitor Assay. The class given is biochemical. Particulars: fluorescence of dansyl cadaverine cross-linked into N,N-dimethylated casein, 8 point titration. The method, then:
Using the fluorescent amine donor, dansyl cadaverine (DSC), and the multiple glutamine bearing amine acceptor N,N-dimethylated casein (NMC), TG activity was measured via the change in fluorescence of cross-linked DSC into NMC over time.

Chain of TG2 (P21980 whole entry): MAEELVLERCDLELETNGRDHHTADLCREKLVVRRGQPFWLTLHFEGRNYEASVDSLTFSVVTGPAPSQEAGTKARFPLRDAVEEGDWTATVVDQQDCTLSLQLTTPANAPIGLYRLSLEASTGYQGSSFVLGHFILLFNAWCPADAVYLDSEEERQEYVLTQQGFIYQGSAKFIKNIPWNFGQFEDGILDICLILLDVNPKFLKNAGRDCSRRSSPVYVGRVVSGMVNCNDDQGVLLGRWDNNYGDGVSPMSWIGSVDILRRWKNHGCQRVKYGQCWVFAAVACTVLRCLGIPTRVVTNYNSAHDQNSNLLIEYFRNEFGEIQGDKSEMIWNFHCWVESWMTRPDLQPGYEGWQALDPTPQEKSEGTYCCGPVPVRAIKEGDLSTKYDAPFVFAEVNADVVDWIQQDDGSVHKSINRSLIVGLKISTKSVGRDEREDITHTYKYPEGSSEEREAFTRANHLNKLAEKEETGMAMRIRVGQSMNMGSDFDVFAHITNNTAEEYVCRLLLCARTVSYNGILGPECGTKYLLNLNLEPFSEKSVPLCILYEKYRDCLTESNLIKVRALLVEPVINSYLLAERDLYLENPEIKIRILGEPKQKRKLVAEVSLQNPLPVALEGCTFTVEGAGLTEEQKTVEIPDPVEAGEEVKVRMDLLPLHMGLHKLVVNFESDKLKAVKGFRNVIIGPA

On to `[2H]C([2H])(C/C=C/C(=O)N(C)C)C(OC(=O)N(C)C)C(=O)Nc1cccn(Cc2nc3cc(F)ccc3[nH]2)c1=O` (stereo not drawn) [Compound 54], for which the IC50 fell in the range of 500 to 5000 nM.
The same measure, in the same setting: under `COC(=O)N[C@@H](CC/C=C/C(=O)N(C)C)C(=O)Nc1cccn(Cc2nc3c(CC(C)C)c(F)cnc3[nH]2)c1=O` [Compound 525] stands below 500 nM.
For `COC(=O)N[C@@H](CC/C=C/C(=O)N(C)C)C(=O)Nc1cncn(Cc2nc3cc(F)cc(CCC(F)(F)F)c3[nH]2)c1=O` [Compound 103, methyl N-[(E,1S)-6-(dimethylamino)-1-[[1-[[5-fluoro-7-(3,3,3-trifluoropropyl)-1H-benzimidazol-2-yl]methyl]-6-oxo-pyrimidin-5-yl]carbamoyl]-6-oxo-hex-4-enyl]carbamate], the IC50 was below 500 nM.
In turn, `COC(=O)N(C)[C@@H](CC/C=C/C(=O)N(C)C)C(=O)Nc1cccn(Cc2nc3cccc(OCc4ccc(F)cc4F)c3[nH]2)c1=O` [Compound 115, methyl (S,E)-methyl(1-((1-((7-((2,4-difluorobenzyl)oxy)-1H-benzo[d]imidazol-2-yl)methyl)-2-oxo-1,2-dihydropyridin-3-yl)amino)-7-(dimethylamino)-1,7-dioxohept-5-en-2-yl)carbamate] showed an IC50 below 500 nM.
Still for that read-out and setting: to `CC(C)Cc1cccc2c1nc(Cn1cccc(NC(=O)[C@H](CC/C=C/C(N)=O)NC(=O)OCc3ccccc3)c1=O)n2C(=O)OC(C)(C)C` [Compound 3] belongs below 500 nM.
`CN(C)C(=O)/C=C/CC[C@H](OC(=O)N(C)C)C(=O)Nc1cccn(Cc2nc3ccc(F)cc3n2Cc2ccc(F)cc2)c1=O` [Compound 208]: the IC50 fell in the range of 500 to 5000 nM.
On the same count and under the same terms, to `[2H]C([2H])(C/C=C/C(=O)N(C)C)C(OC(=O)N(C)C)C(=O)Nc1cccn(Cc2cc3cc(F)cc(CC(C)C)c3[nH]2)c1=O` (stereo not drawn) [Compound 308] belongs below 500 nM; to `CC(C)Cn1c(Cn2ccnc(NC(=O)[C@H](CC/C=C/C(=O)N(C)C)OC(=O)N(C)C)c2=O)cc2cc(F)ccc21` [Compound 344, [(E,1S)-6-(dimethylamino)-1-[[4-[(5-fluoro-1-isobutyl-indol-2-yl)methyl]-3-oxo-pyrazin-2-yl]carbamoyl]-6-oxo-hex-4-enyl]N,Ndimethylcarbamate], below 500 nM.
The same measure, in the same setting: to `CN(C)C(=O)/C=C/CC[C@H](OC(=O)N(C)C)C(=O)Nc1cccn(Cc2nc3ccc(F)cc3n2Cc2ccccc2)c1=O` [Compound 202, [(E,1S)-1-[[1-[(1-benzyl-6-fluoro-benzimidazol-2-yl)methyl]-2-oxo-3-pyridyl]carbamoyl]-6-(dimethylamino)-6-oxo-hex-4-enyl]N,N-dimethylcarbamate] belongs 500 to 5000 nM; to `CN(C)C(=O)/C=C/CC[C@H](OC(=O)N(C)C)C(=O)Nc1cccn(Cc2nc3cc(F)ccc3n2Cc2ccc(F)cc2)c1=O` [Compound 207], 500 to 5000 nM; to `COC(=O)N[C@@H](CC/C=C/C(=O)N(C)C)C(=O)Nc1cncn(Cc2nc3cc(F)ccc3n2C)c1=O` [Compound 174, methyl N-[(E,1S)-6-(dimethylamino)-1-[[1-[(5-fluoro-1-methyl-benzimidazol-2-yl)methyl]-6-oxo-pyrimidin-5-yl]carbamoyl]-6-oxo-hex-4-enyl]carbamate], 5000 to 100000 nM.
Still for that read-out and setting: to `COC(=O)N[C@@H](CC/C=C/C(=O)N(C)C)C(=O)Nc1cc(F)c(C)n(Cc2nc3c(F)cnc(CC(C)C)c3[nH]2)c1=O` [Compound 583] belongs below 500 nM; to `COC(=O)N[C@@H](CC/C=C/C(=O)N(C)C)C(=O)Nc1cccn(Cc2nc3c(CC(C(F)(F)F)C(F)(F)F)cccc3n2C(=O)OC(C)(C)C)c1=O` [Compound 148, (S,E)-tert-butyl 2-((3-(7-(dimethylamino)-2-((methoxycarbonyl)amino)-7-oxohept-5-enamido)-2-oxopyridin-1(2H)-yl)methyl)-4-(3,3,3-trifluoro-2-(trifluoromethyl)propyl)-1H-benzo[d]imidazole-1-carboxylate], 500 to 5000 nM.
`[2H]C([2H])(C/C=C/C(=O)N(C)C)C(OC(=O)N(C)C)C(=O)Nc1cccn(Cc2cc3cc(F)cc(CC(C)C)c3n2C(=O)OC(C)(C)C)c1=O` (stereo not drawn) [Compound 307] had an IC50 of 500 to 5000 nM.
On the same count and under the same terms, to `CN(C)C(=O)/C=C/CC[C@H](OC(=O)N(C)C)C(=O)Nc1ccnn(Cc2nc3cc(F)cc(CC(C)(C)C)c3[nH]2)c1=O` [Compound 85, [(E,1S)-6-(dimethylamino)-1-[[2-[[7-(2,2-dimethylpropyl)-5-fluoro-1H-benzimidazol-2-yl]methyl]-3-oxo-pyridazin-4-yl]carbamoyl]-6-oxo-hex-4-enyl]N,N-dimethylcarbamate] belongs below 500 nM.
On to `COCc1ccc(NC(=O)[C@H](CC/C=C/C(=O)N(C)C)NC(=O)OC)c(=O)n1Cc1nc2c(F)cnc(CC(C)C)c2[nH]1` [Compound 599], for which the IC50 is below 500 nM. Also, for the setting “listed as 101”, the IC50 was in the range of 500 to 5000 nM.
Compound `[2H]C([2H])(C/C=C/C(=O)N(C)C)C(OC(=O)N(C)C)C(=O)Nc1cccn(Cc2nc3cc(F)ccc3[nH]2)c1=O` (stereo not drawn) [Compound 55] returned an IC50 of 500 to 5000 nM.
The same measure, in the same setting: to `CN(C)C(=O)/C=C/CC[C@H](NC(=O)OC(C)(C)C)C(=O)Nc1cccn(Cc2nc3cccc(C(O)C(C)(C)C)c3[nH]2)c1=O` (stereo partly drawn) [Compound 160, tert-butyl ((2S,E)-7-(dimethylamino)-1-((1-((7-(1-hydroxy-2,2-dimethylpropyl)-1H-benzo[d]imidazol-2-yl)methyl)-2-oxo-1,2-dihydropyridin-3-yl)amino)-1,7-dioxohept-5-en-2-yl)carbamate] belongs below 500 nM; to `COC(=O)N[C@@H](CC/C=C/C(=O)N(C)C)C(=O)Nc1cncn(Cc2nc3c(CCC(F)(F)F)cc(F)cc3n2C(=O)OC(C)(C)C)c1=O` [Compound 102, tert-butyl 2-[[5-[[(E,2S)-7-(dimethylamino)-2-(methoxycarbonylamino)-7-oxo-hept-5-enoyl]amino]-6-oxo-pyrimidin-1-yl]methyl]-6-fluoro-4-(3,3,3-trifluoropropyl)benzimidazole-1-carboxylate], below 500 nM; to `COC(=O)N[C@@H](CC/C=C/C(=O)N(C)C)C(=O)Nc1cccn(Cc2cc3ncc(F)c(CC4CCC4)c3[nH]2)c1=O` [Compound 585], below 500 nM.
Consider `COC(=O)N[C@@H](CC/C=C/C(=O)N(C)C)C(=O)Nc1cccn(Cc2cc3c(F)cnc(C=C(C)C)c3[nH]2)c1=O` [Compound 501], for which the IC50 is below 500 nM.
The same measure, in the same setting: to `[2H]C([2H])(C/C=C/C(=O)N(C)C)C(OC(=O)N(C)C)C(=O)Nc1cccn(Cc2cc3cc(F)cc(OCc4ccc(F)cc4F)c3n2C(=O)OC(C)(C)C)c1=O` (stereo not drawn) [Compound 303] belongs 5000 to 100000 nM.
Still for that read-out and setting: to `COC(=O)N[C@@H](CC/C=C/C(=O)N(C)C)C(=O)Nc1cccn(Cc2nc3c(N(C)C)nc(C)nc3[nH]2)c1=O` [Compound 504] belongs 500 to 5000 nM.
Same read-out and setting: to `COC(=O)N[C@@H](CC/C=C/C(=O)N(C)C)C(=O)Nc1cccn(Cc2cc3ncnc(CC(C)C)c3[nH]2)c1=O` [Compound 459, methyl N-[(E,1S)-6-(dimethylamino)-1-[[1-[(4-isobutyl-5H-pyrrolo[3,2-d]pyrimidin-6-yl)methyl]-2-oxo-3-pyridyl]carbamoyl]-6-oxo-hex-4-enyl]carbamate] belongs below 500 nM.
Turning to `[2H]C([2H])(C/C=C/C(=O)N(C)C)C(OC(=O)N(C)C)C(=O)Nc1cccn(Cc2cc3cc(F)ccc3n2C(=O)OC(C)(C)C)c1=O` (stereo not drawn) [Compound 224], the IC50 is below 500 nM.
Same read-out and setting: under `[2H]C([2H])(C/C=C/C(=O)N(C)C)C(OC(=O)N(C)C)C(=O)Nc1cccn(Cc2cc3cccc(CC(C)C)c3n2C(=O)OC(C)(C)C)c1=O` (stereo not drawn) [Compound 247] stands 500 to 5000 nM.

The values above are taken from patent publication US11548892B1, “Transglutaminase 2 (TG2) inhibitors” (Sitari Pharma, Inc., priority 2018, dated 2023).
